From patent US20050112573A1, “Method of detecting toxic substance” (priority 2001, published 2005)

Test system: yeast genes (level of expressed mRNA)
Assay: DNA chip analysis of expressed mRNA of yeast genes after 2 h culture with a toxic chemical substance
Format: cell-based, Saccharomyces cerevisiae S288C
Details: for The level of expressed mRNA in the presence of chemical substance/ (ratio to absence of chemical substance): stress protein genes, DNA chip
Description: Yeast (Saccharomyces cerevtisiae S288C (α SUC2mal mel gap2 CUP1)) were cultured at 25° C. on YPD medium (yeast extract 1%, polypepton 2%, glucose 2%). One of toxic chemical substances was added to the cell at logarithmic growth phase, and the cell was further cultured for two hours. Cell was cultured without any chemical substance in the same condition, and was used as control. Concentrations of the chemical substances were defined to inhibit the growth of the yeast but not lead to death.
After the completion of cultivation, the culture was centrifuged to collect the cells. To the cells, sodium acetate buffer (50 mM sodium acetate, 10 mM EDTA, 1% SDS) was added, and the mixture was shaken at 65° C. for five minutes, followed by returning to room temperature, and obtaining the supernatant, which procedure was repeated two times. To the supernatant, ½ amount of a solution of phenol/chloroform was added, and the mixture was centrifuged to give a supernatant, which was added with an equal amount of chloroform, and the mixture was centrifuged to give a supernatant. To the supernatant, an equal amount of isopropanol containing 0.3 M sodium acetate was added, and the mixture was allowed to stand at room temperature for 30 minutes, after which the mixture was centrifuged to give a sediment of the whole RNAs. Seventy % ethanol was added to the sediment, and the mixture was again centrifuged to give a sediment, which was then dried and dissolved in water. mRNA was isolated from the whole RNAs as followings. In view of the fact that a poly A chain is attached to the 3′ terminus of mRNA, a polynucleotide having a poly T structure which was immobilized on the surface of latex beads was used to trap the mRNA, and then the mRNA was washed and eluted with spine column (Oligotex-dT30<Super>mRNA Purification Kit, Takara). Reverse transcription of the mRNA was conducted with a reverse transcriptase (Super Script II Reverse Transcriptase; catalogue No. 18064-014, GibcoBRL) using fluorescence-labeled nucleotides to give cDNAs that were introduced with Cy3-dUTP or Cy5-dUTP during the reverse transcription.
The labeled cDNAs were dissolved in TE buffer (10 mM Tris-HCl/1 mM EDTA, pH8.0), and the solution was dropped on the DNA chip containing the whole genes of yeast (DNA Chip Research Inc. Japan) so that the cDNAs were hybridized on the DNA chip at 65° C. for over 12 hours. The fluoresces intensity of the DNA chip was read with a scanner, and the ratio relative to the fluorescence intensity resulting from the absence of chemical substance was estimated as the following, which is shown in Tables 1 to 9: [formula]
In the Tables, “Intensity” indicated in the rightmost column is a value of the level of expressed mRNA of each gene in control cells as divided by the average level of the expressions of the whole genes.

## S=C([S-])NCCNC(=S)[S-].[Zn+2] [(11), zinc N,N′-ethylenebis(dithiocarbamate)]
Gene YOR253W
  The level of expressed mRNA in the presence of chemical substance/absence: YOR253W: 0.9
Gene YOR267C
  The level of expressed mRNA in the presence of chemical substance/absence: YOR267C: 0.4
Gene YOR325W
  The level of expressed mRNA in the presence of chemical substance/absence: YOR325W: 0.6
Gene YOR336W
  level of expressed mRNA in the presence of chemical substance/in its absence: 1.4
Gene YOR344C
  level of expressed mRNA in the presence of chemical substance/in its absence: 0.6
Gene YOR347C
  level of expressed mRNA in the presence of chemical substance/in its absence: 1.4
Gene YPL005W
  The level of expressed mRNA in the presence of chemical substance/absence: YPL005W: 1.1
Gene YPL017C
  level of expressed mRNA in the presence of chemical substance/in its absence: 0.4
Gene YPL107W, DNA chip fluorescence ratio to control without chemical, 2 hours culture with chemical, growth-inhibiting non-lethal concentration
  The level of expressed mRNA in the presence of chemical substance / the level in the absence of chemical substance, yeast gene YPL107W: 1.1
Gene YPL138C, DNA chip fluorescence ratio to control without chemical, 2 hours culture with chemical, growth-inhibiting non-lethal concentration
  The level of expressed mRNA in the presence of chemical substance / the level in the absence of chemical substance, yeast gene YPL138C: 0.5
Gene YPL150W
  The level of expressed mRNA in the presence of chemical substance/absence: YPL150W: 1.1
Gene YPL151C
  The level of expressed mRNA in the presence of chemical substance/absence: YPL151C: 0.9
Gene YPL152W
  The level of expressed mRNA in the presence of chemical substance/absence: YPL152W: 1.4
Gene YPL168W
  The level of expressed mRNA in the presence of chemical substance/absence: YPL168W: 0.7
Gene YPL180W
  The level of expressed mRNA in the presence of chemical substance/absence: YPL180W: 1.0
Gene YPL188W
  The level of expressed mRNA in the presence of chemical substance/absence: YPL188W: 1.0
Gene YPL221W
  The level of expressed mRNA in the presence of chemical substance/absence: YPL221W: 1.0
Gene YPL225W
  The level of expressed mRNA in the presence of chemical substance/absence: YPL225W: 0.9
Gene YPL249C
  The level of expressed mRNA in the presence of chemical substance/absence: YPL249C: 0.9
Gene YPL260W
  The level of expressed mRNA in the presence of chemical substance/absence: YPL260W: 1.0
Gene YPL265W
  level of expressed mRNA in the presence of chemical substance/in its absence: 1.8
Gene YPR006C
  level of expressed mRNA in the presence of chemical substance/in its absence: 2.4
Gene YPR026W
  level of expressed mRNA in the presence of chemical substance/in its absence: 1.6
Gene YPR049C
  The level of expressed mRNA in the presence of chemical substance/absence: YPR049C: 0.9
Gene YPR061C
  The level of expressed mRNA in the presence of chemical substance/absence: YPR061C: 1.6
Gene YPR093C
  The level of expressed mRNA in the presence of chemical substance/absence: YPR093C: 1.2
Gene YPR146C
  The level of expressed mRNA in the presence of chemical substance/absence: YPR146C: 1.4
Gene YPR148C
  The level of expressed mRNA in the presence of chemical substance/absence: YPR148C: 0.9
Gene YPR150W
  The level of expressed mRNA in the presence of chemical substance/absence: YPR150W: 0.9
Gene YPR158W
  The level of expressed mRNA in the presence of chemical substance/absence: YPR158W: 1.5
Gene YPR169W
  The level of expressed mRNA in the presence of chemical substance/absence: YPR169W: 1.0
Gene YPR172W
  The level of expressed mRNA in the presence of chemical substance/absence: YPR172W: 1.9
Gene YPR174C
  The level of expressed mRNA in the presence of chemical substance/absence: YPR174C: 0.7
Yeast gene YAR010C
  The level of expressed mRNA in the presence of chemical substance/The level of expressed mRNA in the absence of chemical substance: 0.9
Yeast gene YBL005W-A
  The level of expressed mRNA in the presence of chemical substance/The level of expressed mRNA in the absence of chemical substance: 0.8
Yeast gene YBL038W, mitochondria-located protein genes, 2 h culture with chemical
  The level of expressed mRNA in the presence of chemical substance/ (ratio to absence), gene YBL038W: 0.7
Yeast gene YBL041W
  The level of expressed mRNA in the presence of chemical substance/The level of expressed mRNA in the absence of chemical substance: 1.6
Yeast gene YBL043W
  The level of expressed mRNA in the presence of chemical substance/The level of expressed mRNA in the absence of chemical substance: 1.5
Yeast gene YBL078C
  The level of expressed mRNA in the presence of chemical substance/The level of expressed mRNA in the absence of chemical substance: 4.6
Yeast gene YBL093C
  The level of expressed mRNA in the presence of chemical substance/ (ratio to absence of chemical substance): 1.3
Yeast gene YBR036C, ratio of DNA chip fluorescence intensity to that without chemical substance
  The level of expressed mRNA in the presence of chemical substance/ (in its absence), gene YBR036C: 1.5
Yeast gene YBR044C
  The level of expressed mRNA in the presence of chemical substance/ (ratio to absence of chemical substance): 1.1
Yeast gene YBR122C, mitochondria-located protein genes, 2 h culture with chemical
  The level of expressed mRNA in the presence of chemical substance/ (ratio to absence), gene YBR122C: 1.2
Yeast gene YBR214W
  The level of expressed mRNA in the presence of chemical substance/The level of expressed mRNA in the absence of chemical substance: 3.2
Yeast gene YBR251W, mitochondria-located protein genes, 2 h culture with chemical
  The level of expressed mRNA in the presence of chemical substance/ (ratio to absence), gene YBR251W: 1.5
Yeast gene YBR298C, ratio of DNA chip fluorescence intensity to that without chemical substance
  The level of expressed mRNA in the presence of chemical substance/ (in its absence), gene YBR298C: 1.5
Yeast gene YCL020W
  The level of expressed mRNA in the presence of chemical substance/The level of expressed mRNA in the absence of chemical substance: 1.3
Yeast gene YCL027W
  The level of expressed mRNA in the presence of chemical substance/The level of expressed mRNA in the absence of chemical substance: 0.9
Yeast gene YCR004C
  The level of expressed mRNA in the presence of chemical substance/The level of expressed mRNA in the absence of chemical substance: 1.9
Yeast gene YCR046C, mitochondria-located protein genes, 2 h culture with chemical
  The level of expressed mRNA in the presence of chemical substance/ (ratio to absence), gene YCR046C: 1.5
Yeast gene YCR071C
  The level of expressed mRNA in the presence of chemical substance/The level of expressed mRNA in the absence of chemical substance: 1.1
Yeast gene YCR083W, mitochondria-located protein genes, 2 h culture with chemical
  The level of expressed mRNA in the presence of chemical substance/ (ratio to absence), gene YCR083W: 1.8
Yeast gene YCR083W
  The level of expressed mRNA in the presence of chemical substance/ (ratio to absence of chemical substance): 1.8
Yeast gene YCR088W
  The level of expressed mRNA in the presence of chemical substance/The level of expressed mRNA in the absence of chemical substance: 1.0
Yeast gene YDL008W
  The level of expressed mRNA in the presence of chemical substance/The level of expressed mRNA in the absence of chemical substance: 0.9
Yeast gene YDL067C, energy system protein genes, 2 h culture with the chemical, ratio to control without chemical
  The level of expressed mRNA in the presence of chemical substance/ in its absence, gene YDL067C: 1.4
Yeast gene YDL067C, mitochondria-located protein genes, 2 h culture with chemical
  The level of expressed mRNA in the presence of chemical substance/ (ratio to absence), gene YDL067C: 1.4
